Structures can show the parent of a compound that is named as a salt.
Experiments:
[1] = test system: MDA-MB-231; assay: Antitumor activity against human MDA-MB-231 cells xenografted in mouse assessed as reduction on tumor volume at 20 mg/kg, ip relative to control; assay type: functional; design: scale not given: the % may be the effect or the level left
[2] = test system: A549; assay: Cytotoxicity against human A549 cells assessed as inhibition of cell growth by MTT assay; assay type: functional, cell-based
[3] = test system: K562; assay: Cytotoxicity against human K562 cells assessed as inhibition of cell growth by MTT assay; assay type: functional, cell-based
[4] = test system: PC-3; assay: Cytotoxicity against human PC-3 cells assessed as inhibition of cell growth by MTT assay; assay type: functional, cell-based
[5] = test system: MDA-MB-231; assay: Cytotoxicity against human MDA-MB-231 cells assessed as inhibition of cell growth by MTT assay; assay type: functional, cell-based
[6] = target: Histone deacetylase; assay: Inhibition of HDAC (unknown origin); assay type: protein assay, Homo sapiens
[7] = test system: MCF7; assay: Cytotoxicity against human MCF7 cells assessed as inhibition of cell growth by MTT assay; assay type: functional, cell-based
[8] = test system: HepG2; assay: Cytotoxicity against human HepG2 cells assessed as inhibition of cell growth by MTT assay; assay type: functional, cell-based
[9] = test system: HL-60; assay: Antiproliferative activity against human HL-60 cells assessed as inhibition of cell growth by MTT assay; assay type: functional, cell-based
[10] = test system: 518A2; assay: Cytotoxicity against human 518A2 cells assessed as inhibition of cell growth by MTT assay; assay type: functional, cell-based
[11] = test system: HCT-116; assay: Cytotoxicity against human HCT-116 cells assessed as inhibition of cell growth by MTT assay; assay type: functional, cell-based
[12] = test system: PANC-1; assay: Cytotoxicity against human PANC-1 cells assessed as inhibition of cell growth by MTT assay; assay type: functional, cell-based
[13] = test system: HT-29; assay: Cytotoxicity against human HT-29 cells assessed as inhibition of cell growth by MTT assay; assay type: functional, cell-based
[14] = Cytotoxicity against human MCF7/Topo cells assessed as inhibition of cell growth by MTT assay; assay type: functional, cell-based
[15] = test system: KB-V1; assay: Cytotoxicity against human vinblastine resistant KB-V1 cells assessed as inhibition of cell growth by MTT assay; assay type: functional, cell-based
[16] = Cytotoxicity against chicken heart fibroblast cells; assay type: toxicity, cell-based, Gallus gallus
[17] = test system: SW-620; assay: Cytotoxicity against human SW620 cells assessed as inhibition of cell growth by MTT assay; assay type: functional, cell-based
[18] = test system: SW-620; assay: Potency index, ratio of vorinostat IC50 to test compound IC50 for cytotoxicity against human SW620 cells assessed as inhibition of cell growth by MTT assay; assay type: functional
[19] = test system: PC-3; assay: Potency index, ratio of vorinostat IC50 to test compound IC50 for cytotoxicity against human PC-3 cells assessed as inhibition of cell growth by MTT assay; assay type: functional
[20] = test system: NCI-H23; assay: Cytotoxicity against human NCI-H23 cells assessed as inhibition of cell growth by MTT assay; assay type: functional, cell-based
[21] = test system: NCI-H23; assay: Potency index, ratio of vorinostat IC50 to test compound IC50 for cytotoxicity against human NCI-H23 cells assessed as inhibition of cell growth by MTT assay; assay type: functional
[22] = test system: MCF7; assay: Cytotoxicity against human MCF7 cells assessed as inhibition of cell growth by SRB assay; assay type: functional, cell-based
[23] = test system: SMMC-7721; assay: Cytotoxicity against human SMMC-7721 cells assessed as inhibition of cell growth by MTT assay; assay type: functional, cell-based
[24] = test system: NCI-H460; assay: Cytotoxicity against human NCI-H460 cells assessed as inhibition of cell growth by MTT assay; assay type: functional, cell-based
[25] = test system: EJ; assay: Cytotoxicity against human EJ cells assessed as inhibition of cell growth by MTT assay; assay type: functional, cell-based
[26] = test system: RPMI-8226; assay: Cytotoxicity against human RPMI-8226 cells assessed as inhibition of cell growth by MTS assay; assay type: functional, cell-based
[27] = test system: MCF7; assay: cells; assay type: functional, cell-based; conditions: Homo sapiens, MCF7, 72 h
Description: Cytotoxicity against human MCF7 cells assessed as inhibition of cell growth measured after 72 hrs by MTT assay

[28] = test system: U2OS; assay: cells; assay type: functional, cell-based; conditions: Homo sapiens, 72 h
Description: Cytotoxicity against human U2OS cells assessed as inhibition of cell growth measured after 72 hrs by MTT assay

[29] = test system: HepG2; assay: Cytotoxicity against human HepG2 cells assessed as inhibition of cell growth measured after 72 hrs by MTT assay; assay type: functional, cell-based; conditions: HepG2, 72 h
[30] = test system: U-937; assay: Cytotoxicity against human U-937 cells assessed as inhibition of cell growth by MTT assay; assay type: functional, cell-based
[31] = test system: PLC-PRF-5; assay: Cytotoxicity against human PLC-PRF-5 cells assessed as inhibition of cell growth by MTT assay; assay type: functional, cell-based
[32] = test system: ES-2; assay: Cytotoxicity against human ES2 cells assessed as inhibition of cell growth by MTT assay; assay type: functional, cell-based
[33] = test system: U-937; assay: Antiproliferative activity against human U-937 cells assessed as inhibition of cell growth by MTT assay; assay type: functional, cell-based
[34] = test system: NCI-H929; assay: Antiproliferative activity against human NCI-H929 cells assessed as inhibition of cell growth by MTT assay; assay type: functional, cell-based
[35] = test system: U-266; assay: Antiproliferative activity against human U-266 cells assessed as inhibition of cell growth by MTT assay; assay type: functional, cell-based
[36] = test system: SH-SY5Y; assay: Antiproliferative activity against human SH-SY5Y cells assessed as inhibition of cell growth by MTT assay; assay type: functional, cell-based
[37] = test system: MCF7; assay: Antiproliferative activity against human MCF7 cells assessed as inhibition of cell growth by MTT assay; assay type: functional, cell-based

O=C(CCCCCCC(=O)Nc1cccc2ccn(S(=O)(=O)c3ccccc3)c12)NO
Activity [1]: 68%

CC(C)c1ccc(C(C)c2nnc(NC(=O)CCC(=O)NO)s2)cc1 (configuration not stated)
IC50 [2]: 14.7 µM | IC50 [3]: 14.7 µM | IC50 [4]: 14.7 µM | IC50 [5]: 14.7 µM | IC50 [6]: 0.2 µM

C[C@H]1[C@@H](NC(=O)CCCCC(=O)NO)O[C@@H]2O[C@@]3(C)CC[C@H]4[C@H](C)CC[C@@H]1[C@@]24OO3
IC50 [7]: 1.28 µg/mL | IC50 [8]: 1.28 µg/mL | IC50 [9]: 1.28 µg/mL

Cn1cnc(-c2ccc(F)cc2)c1-c1ccc(/C=C/C(=O)NO)cc1
IC50 [10]: 0.3 µM | IC50 [11]: 0.3 µM | IC50 [12]: 0.3 µM | IC50 [13]: 0.3 µM | IC50 [14]: 0.3 µM | IC50 [15]: 0.3 µM | IC50 [16]: > 150 µM

Cc1ccc2c(=O)n(Cc3ccc(/C=C/C(=O)NO)cc3)cnc2c1
IC50 [4]: 0.62 µM | IC50 [6]: 0.17 µM | IC50 [17]: 0.62 µM | Ratio IC50 [18]: >3 | Ratio IC50 [19]: >3 | IC50 [20]: 0.62 µM | Ratio IC50 [21]: >3

COc1cc(/C=C2\N=C(c3ccccc3)N(n3c(SCC(=O)NO)nnc3-c3ccccc3)C2=O)ccc1O
GI50 [22]: 24.9 µM | IC50 [6]: 0.09 µM

O=C(CCC(=O)Nc1nnc(-c2ccc(O)cc2)s1)NO
IC50 [2]: 14.7 µM | IC50 [3]: 14.7 µM | IC50 [4]: 14.7 µM | IC50 [5]: 14.7 µM | IC50 [6]: 0.2 µM

COc1ccc(-c2ncn(C)c2-c2ccc(/C=C/C(=O)NO)cc2)cc1
IC50 [10]: 0.3 µM | IC50 [11]: 0.3 µM | IC50 [12]: 0.3 µM | IC50 [13]: 0.3 µM | IC50 [14]: 0.3 µM | IC50 [15]: 0.3 µM | IC50 [16]: > 150 µM

CC(C)=CCC/C(C)=C/CC/C(C)=C/CSc1ccccc1C(=O)NCCC(=O)NO
IC50 [7]: 4.93 µM | IC50 [8]: 4.93 µM | IC50 [23]: 4.93 µM | IC50 [24]: 4.93 µM | IC50 [25]: 4.93 µM

CCn1cnc(-c2ccc(OC)cc2)c1-c1ccc(/C=C/C(=O)NO)cc1
IC50 [10]: 0.3 µM | IC50 [11]: 0.3 µM | IC50 [12]: 0.3 µM | IC50 [13]: 0.3 µM | IC50 [14]: 0.3 µM | IC50 [15]: 0.3 µM | IC50 [16]: > 150 µM

O=C(CCCCCCC(=O)Nc1ccccc1)NO [VORINOSTAT]
Activity [1]: 40%

CCCCCCSc1ncc(C(=O)NO)c(N(Cc2ccccc2)S(=O)(=O)c2ccc(OC)cc2)n1
IC50 [26]: > 7.8 µM

CCCCCSc1ncc(C(=O)NO)c(N(Cc2ccccc2)S(=O)(=O)c2ccc(F)cc2)n1
IC50 [26]: > 5.6 µM

Cc1nc2ccc(Cl)cc2c(=O)n1Cc1ccc(C(=O)NO)cc1
IC50 [4]: 0.62 µM | IC50 [6]: 0.76 µM | IC50 [17]: 0.62 µM | Ratio IC50 [18]: >3 | Ratio IC50 [19]: >3 | IC50 [20]: 0.62 µM | Ratio IC50 [21]: >3

COc1cc(NC(C)CCCNC(=O)CCC(=O)NO)c2ncccc2c1 (configuration not stated)
IC50 [27]: 1.6 µM | IC50 [28]: 1.6 µM | IC50 [29]: 1.6 µM

NC(=O)N1N=C(c2ccccc2)CC1c1ccccc1OCC(=O)NO (configuration not stated)
IC50 [30]: 18.7 µM | IC50 [3]: 18.7 µM | IC50 [31]: 18.7 µM | IC50 [4]: 18.7 µM | IC50 [32]: 18.7 µM | IC50 [8]: 18.7 µM

O=C(CCC(=O)Nc1nnc(-c2ccc(Cl)cc2)s1)NO
IC50 [2]: 14.7 µM | IC50 [3]: 14.7 µM | IC50 [4]: 14.7 µM | IC50 [5]: 14.7 µM | IC50 [6]: 0.2 µM

CC(C)C[C@H](NC(=O)[C@@H](O)[C@H](N)Cc1ccccc1)C(=O)O [UBENIMEX]
IC50 [30]: > 500 µM | IC50 [3]: > 500 µM | IC50 [31]: > 500 µM | IC50 [4]: > 500 µM | IC50 [32]: > 500 µM | IC50 [8]: > 500 µM

CC(C)=CCC/C(C)=C/CC/C(C)=C/CSc1ccccc1C(=O)O [SALIRASIB]
IC50 [8]: 48.6 µM | IC50 [23]: 48.6 µM | IC50 [24]: 48.6 µM | IC50 [25]: 48.6 µM

C[C@H]1[C@@H](NC(=O)CCCCCC(=O)NO)O[C@@H]2O[C@@]3(C)CC[C@H]4[C@H](C)CC[C@@H]1[C@@]24OO3
IC50 [7]: 1.28 µg/mL | IC50 [8]: 1.28 µg/mL | IC50 [9]: 1.28 µg/mL

O=C(NO)c1cn(C2CCN(C(=O)c3ccc(-c4ccccc4)cc3)CC2)nn1
IC50 [9]: 1.2 µM | IC50 [33]: 1.2 µM | IC50 [34]: 1.2 µM | IC50 [35]: 1.2 µM | IC50 [36]: 1.2 µM | IC50 [37]: 1.2 µM

CC(C)=CCC/C(C)=C/CC/C(C)=C/CSc1ccccc1C(=O)NCCCC(=O)NO
IC50 [7]: 4.93 µM | IC50 [8]: 4.93 µM | IC50 [23]: 4.93 µM | IC50 [24]: 4.93 µM | IC50 [25]: 4.93 µM

COc1cc2ncn(Cc3ccc(C(=O)NO)cc3)c(=O)c2cc1OC
IC50 [4]: 0.62 µM | IC50 [6]: 0.37 µM | IC50 [17]: 0.62 µM | Ratio IC50 [18]: >3 | Ratio IC50 [19]: >3 | IC50 [20]: 0.62 µM | Ratio IC50 [21]: >3

CCCCCSc1ncc(C(=O)NO)c(N(Cc2ccccc2)S(=O)(=O)c2ccc(OC)cc2)n1
IC50 [26]: > 7.8 µM

COc1cc(NC(C)CCCCCCNC(=O)CCC(=O)NO)c2ncccc2c1 (configuration not stated)
IC50 [27]: 1.6 µM | IC50 [28]: 1.6 µM | IC50 [29]: 1.6 µM

O=C(/C=C/c1ccc(Cn2cnc3cc(F)ccc3c2=O)cc1)NO
IC50 [4]: 0.62 µM | IC50 [6]: 0.15 µM | IC50 [17]: 0.62 µM | Ratio IC50 [18]: >3 | Ratio IC50 [19]: >3 | IC50 [20]: 0.62 µM | Ratio IC50 [21]: >3

COc1cccc2c1C(=O)c1c(O)c3c(c(O)c1C2=O)C[C@@](O)(C(=O)CO)C[C@@H]3O[C@H]1C[C@H](N)[C@H](O)[C@H](C)O1 [DOXORUBICIN HYDROCHLORIDE]
GI50 [22]: 50.2 µM

CCCCCSc1ncc(C(=O)NO)c(N(Cc2ccccc2)S(=O)(=O)c2cccc(OC)c2)n1
IC50 [26]: > 5.6 µM

Reference: ChEMBL document CHEMBL5230103, “Hydroxamic acid hybrids as the potential anticancer agents: An Overview” (Eur J Med Chem, 2020)
